Read-outs that look alike come from different tables or passages of the source.
How the values were obtained:
[1] = Cd^2+; 25° C.; cited from earlier work
[2] = Am^3+; 25° C.; cited from earlier work
[3] = Persistence of the metal complex versus acidity; format: binding; details: Ti^4+
[4] = Lu^3+; 25° C.; cited from earlier work
[5] = Persistence of the metal complex versus acidity; format: binding; details: Hf^4+
[6] = UO2^2+; 25° C.; cited from earlier work
[7] = La^3+; 25° C.; cited from earlier work
[8] = Gd^3+; 25° C.; cited from earlier work
[9] = Persistence of the metal complex versus acidity; format: binding; details: Sn^4+
[10] = Stability constant (log βML) of ligand-metal complexes; format: binding
Text: Thus far, no stability constant has been published for the actinium (Ac^3+) complex of 3,4,3-LI(1,2-HOPO). Based on the ionic radius of Ac^3+ (1.22 Å; See, D. Lundberg, I. Persson, The size of actinoid(III) ions—structural analysis vs. common misinterpretations, Coord. Chem. Rev. 318 (2016) 131-134. doi:10.1016/j.ccr.2016.04.003) and stability constants determined for other actinide and lanthanide ions, the stability of the Ac^3+ complex is expected to be very low, with a log β[AcL]- value of about 12 (FIG. 22). Stability of constant of 3,4,3-LI(1,2-HOPO) complexes with trivalent ions as a function of the ionic radius of the metal is shown in FIG. 22. […] Ionic radius values taken from Lundberg et al. for nona-coordinated metal ions. The Ac^3+ data point is an estimate. See, Lundberg, I. Persson, The size of actinoid(III) ions—structural analysis vs. common misinterpretations, Coord. Chem. Rev. 318 (2016) 131-134. doi:10.1016/j.ccr.2016.04.003; D. Lundberg, I. Persson, L. Eriksson, P. D'Angelo, S. De Panfilis, Structural Study of the N,N′-Dimethylpropyleneurea Solvated Lanthanoid(III) Ions in Solution and Solid State with an Analysis of the Ionic Radii of Lanthanoid(III) Ions, Inorg. Chem. 49 (2010) 4420-4432. doi:10.1021/ic100034q.

[11] = Th^4+; 25° C.; cited from earlier work
[12] = Pb^2+; 25° C.; cited from earlier work
[13] = Ligand selectivity from stability constants; format: binding
Text: While this class of ligands, encompassing HOPO and catecholamide (CAM) derivatives, has been known for decades, it had never been studied in details for separation applications. In fact, a few exceptions aside, most of these chelators have only been studied with a single cation, such as Gd^3+, Th^4+, or Pu^4+, impairing broader evaluation of their metal-metal selectivity. The chemistry of some HOPO ligands was recently extended across the periodic table, highlighting their outstanding selectivity, and large superiority over polyaminocarboxylate chelators (IDA, EDTA, DTPA, etc.), typically encountered in separations (FIGS. 46A-46F). Stability constants (log βML) were calculated as described in Sturzbecher-Hoehne, M., Kullgren, B., Jarvis, E. E., An, D. D. & Abergel, R. J. Highly Luminescent and Stable Hydroxypyridinonate Complexes: A Step Towards New Curium Decontamination Strategies. Chem. Eur. J. 20, 9962-9968 (2014); Sturzbecher-Hoehne, M., Yang, P., D'Aldo, A. & Abergel, R. J. Intramolecular sensitization of americium luminescence in solution: shining light on short-lived forbidden 5f transitions. Dalton Trans. 45, 9912-9919 (2016); Deblonde, G. J.-P., Lohrey, T. D., An, D. D. & Abergel, R. J. Toxic heavy metal—Pb, Cd, Sn—complexation by the octadentate hydroxypyridinonate ligand archetype 3,4,3-LI(1,2-HOPO). New J. Chem. 42, 7649-7658 (2018). […]

O=C(NCCCN(CCCCN(CCCNC(=O)c1cccc(=O)n1O)C(=O)c1cccc(=O)n1O)C(=O)c1cccc(=O)n1O)c1cccc(=O)n1O [3,4,3-LI(1,2-HOPO)]
log βML [1]: 16.1 ± 0.3
log βML [2]: 20.4 ± 0.2
acidity range over which the ligand stays bound [3]: from pH 6 to 10 M HCl (at least)
log βML [4]: 21.2 ± 0.1
acidity range over which the ligand stays bound [5]: from pH 8 to strongly acidic solutions (at least 6 M HCl)
log βML [6]: 18.0 ± 0.4
log βML [7]: 16.4 ± 0.4
log βML [8]: 20.5 ± 0.1
acidity range over which the ligand stays bound [9]: from pH 8 to 1 M HCl
log β[AcL]- ([10]; Ac^3+ complex, expected from ionic radius (1.22 Å) and constants of other ions): about 12
log βML ([10]; Ac^3+, estimate based on ionic radius): 10-14
log βML [11]: 40.1 ± 0.5
log βML [12]: 18.0 ± 0.2
Ce^4+/Ce^3+ selectivity above what could be expected from a carboxylate ligand [13]: about 15 orders of magnitude
